Several values for one entry are separate records, joined by “and”; a condition that tells them apart may be missing. Equal values may be shown once. Read-outs that look alike come from different tables or passages of the source. *1 amine or outer side, *2 acyl side, *3 side chain or, on linkers, in order; H or OH if unused. Where a SMILES comes first, the peptide text is derived from it. Side-chain parts run from the residue outwards. [ ]: non-standard residue; d: D form. The star is where a group is joined. C18 diacid = O=C(O)CCCCCCCCCCCCCCCCC(=O)*; γGlu = O=C(O)[C@H](CCC(=O)[*:2])N[*:1]; AEEA = NCCOCCOCC(=O)O; Aib = CC(C)(N)C(=O)O
Tests used:
Assay type in all cases: cell-based
human SNP-tagged GLP-2R = target: T1, human SNP-tagged GLP-2R (Homo sapiens, UniProt O95838); experiment: Receptor internalization assay, HEK293A cells expressing human SNAP-tagged GLP-2R; conditions: for Absolute hGLP-2R internalization (AUC): AUC of sigmoid curves up to 1 μM, 60 minutes at 37° C.; for Relative hGLP-2R internalization (%): relative to native ligand = 100
T1 construct: expressed in transfected cells; host or cells: HEK293A
T1 sequence (O95838 1-553): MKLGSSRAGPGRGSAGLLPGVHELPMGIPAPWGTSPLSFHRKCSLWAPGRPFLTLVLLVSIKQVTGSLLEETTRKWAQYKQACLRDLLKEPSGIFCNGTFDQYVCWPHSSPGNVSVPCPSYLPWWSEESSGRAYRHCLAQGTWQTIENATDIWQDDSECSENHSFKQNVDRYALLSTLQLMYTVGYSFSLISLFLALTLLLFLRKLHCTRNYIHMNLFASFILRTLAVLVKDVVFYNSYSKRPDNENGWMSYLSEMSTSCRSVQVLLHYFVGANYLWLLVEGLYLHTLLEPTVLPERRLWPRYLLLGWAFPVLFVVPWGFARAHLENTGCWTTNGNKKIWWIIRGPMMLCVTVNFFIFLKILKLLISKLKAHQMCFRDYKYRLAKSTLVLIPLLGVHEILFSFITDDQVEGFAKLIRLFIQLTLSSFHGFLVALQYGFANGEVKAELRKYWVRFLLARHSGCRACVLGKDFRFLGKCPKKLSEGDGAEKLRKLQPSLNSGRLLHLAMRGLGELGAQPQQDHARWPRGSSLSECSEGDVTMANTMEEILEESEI

human GIPR = target: T2, human GIPR (Homo sapiens, UniProt P48546); experiment: cAMP assay (HitHunter) in transiently transfected COS-7 cells expressing human GIPR
T2 construct: host or cells: COS-7
T2 sequence (P48546 22-466): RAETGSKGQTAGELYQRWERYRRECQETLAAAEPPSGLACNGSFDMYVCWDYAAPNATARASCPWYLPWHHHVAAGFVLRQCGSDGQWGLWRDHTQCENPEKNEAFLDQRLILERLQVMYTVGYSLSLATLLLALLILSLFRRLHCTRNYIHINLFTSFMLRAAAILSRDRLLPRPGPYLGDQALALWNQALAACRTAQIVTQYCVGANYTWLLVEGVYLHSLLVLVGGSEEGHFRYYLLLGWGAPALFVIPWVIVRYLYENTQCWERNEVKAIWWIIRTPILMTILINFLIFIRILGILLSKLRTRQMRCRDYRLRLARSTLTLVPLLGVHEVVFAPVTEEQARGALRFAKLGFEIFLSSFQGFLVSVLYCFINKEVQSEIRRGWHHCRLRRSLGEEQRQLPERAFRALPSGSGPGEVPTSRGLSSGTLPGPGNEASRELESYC

[1] = target: human glucagon receptor (GCGR) (Homo sapiens, UniProt P47871); experiment: Gs activation measured as cAMP accumulation on human glucagon receptor (FIG. 1 radar plot); conditions: read-out: −p Log EC50 on human glucagon receptor (GCGR) (converted)
From the text: Here, the compounds 20, 21, 22, 28, 30, 31,32, 33, 34, 35 are shown in terms of their potencies in Gs activation, measured as CAMP accumulation, depicted in a radar plot. The numbers refer to −p Log EC50 values. […] The outer rings correspond to higher potencies, the inner rings correspond to lower potencies.

human GLP-1R = target: T3, human GLP-1R (Homo sapiens, UniProt P43220); experiment: cAMP assay (HitHunter) in transiently transfected COS-7 cells expressing human GLP-1R
T3 construct: host or cells: COS-7

human SNAP-tagged GIPR = target: T4, human SNAP-tagged GIPR (Homo sapiens, UniProt P48546); experiment: Receptor internalization assay, HEK293A cells expressing human SNAP-tagged GIPR
T4 construct: host or cells: HEK293A
T4 sequence (P48546 22-466): T2 sequence (P48546 22-466)

human GLP-2R = target: T5, human GLP-2R (Homo sapiens, UniProt O95838); experiment: cAMP assay (HitHunter) in transiently transfected COS-7 cells expressing human GLP-2R
T5 construct: host or cells: COS-7
T5 sequence (O95838 1-553): T1 sequence (O95838 1-553)

human SNAP-tagged GLP-1R = target: T6, human SNAP-tagged GLP-1R (Homo sapiens, UniProt P43220); experiment: Receptor internalization assay, HEK293A cells expressing human SNAP-tagged GLP-1R; conditions: for Absolute hGLP-1R internalization (AUC): AUC of sigmoid curves up to 1 μM, 60 minutes at 37° C.; for Relative hGLP-1R internalization (%): relative to hGLP-1 = 100
T6 construct: expressed in transfected cells; host or cells: HEK293A
T6 sequence (P43220 24-463): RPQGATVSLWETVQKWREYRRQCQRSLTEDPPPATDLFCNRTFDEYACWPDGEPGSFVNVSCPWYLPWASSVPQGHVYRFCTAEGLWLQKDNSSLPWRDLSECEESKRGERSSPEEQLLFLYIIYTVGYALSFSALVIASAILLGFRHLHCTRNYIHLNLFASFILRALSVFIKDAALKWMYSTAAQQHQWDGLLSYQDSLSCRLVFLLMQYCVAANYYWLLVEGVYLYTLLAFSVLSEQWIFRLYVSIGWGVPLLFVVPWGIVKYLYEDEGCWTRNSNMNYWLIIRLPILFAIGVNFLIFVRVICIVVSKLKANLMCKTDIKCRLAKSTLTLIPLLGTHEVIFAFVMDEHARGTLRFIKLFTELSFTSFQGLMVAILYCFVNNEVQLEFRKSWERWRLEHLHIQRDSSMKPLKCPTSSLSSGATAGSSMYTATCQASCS

T3 sequence (P43220 24-463): as above
Sequence of human glucagon receptor (GCGR) (P47871 26-477): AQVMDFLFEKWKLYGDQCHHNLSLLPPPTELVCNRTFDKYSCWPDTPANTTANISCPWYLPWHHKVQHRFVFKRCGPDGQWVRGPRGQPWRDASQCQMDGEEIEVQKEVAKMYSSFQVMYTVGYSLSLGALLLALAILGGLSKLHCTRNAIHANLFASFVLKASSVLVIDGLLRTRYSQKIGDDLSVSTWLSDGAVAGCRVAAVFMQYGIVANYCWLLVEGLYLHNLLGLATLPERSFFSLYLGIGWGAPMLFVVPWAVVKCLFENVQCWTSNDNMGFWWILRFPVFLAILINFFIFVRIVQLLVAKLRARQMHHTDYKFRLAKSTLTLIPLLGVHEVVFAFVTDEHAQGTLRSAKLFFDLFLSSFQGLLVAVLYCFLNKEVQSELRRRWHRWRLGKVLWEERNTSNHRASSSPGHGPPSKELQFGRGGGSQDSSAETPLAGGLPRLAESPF

CC[C@H](C)[C@H](NC(=O)[C@H](Cc1ccccc1)NC(=O)[C@H](CC(=O)O)NC(=O)[C@H](CCCNC(=N)N)NC(=O)[C@H](C)NC(=O)[C@H](C)NC(=O)[C@H](CC(C)C)NC(=O)[C@H](C)NC(=O)[C@H](CC(=O)O)NC(=O)[C@H](CC(C)C)NC(=O)[C@@H](NC(=O)[C@@H](NC(=O)[C@H](CO)NC(=O)[C@H](Cc1ccc(O)cc1)NC(=O)[C@H](CC(=O)O)NC(=O)[C@H](CO)NC(=O)[C@@H](NC(=O)[C@H](Cc1ccccc1)NC(=O)[C@@H](NC(=O)CNC(=O)[C@H](CC(=O)O)NC(=O)C(C)(C)NC(=O)[C@@H](N)Cc1c[nH]cn1)[C@@H](C)O)[C@@H](C)CC)[C@@H](C)O)[C@@H](C)CC)C(=O)N[C@@H](CC(N)=O)C(=O)N[C@@H](Cc1c[nH]c2ccccc12)C(=O)N[C@@H](CC(C)C)C(=O)N[C@H](C(=O)N[C@@H](CCC(N)=O)C(=O)N[C@H](C(=O)N[C@@H](CCCCN)C(=O)N[C@H](C(=O)N[C@H](C(=O)N[C@@H](CCCCNC(=O)COCCOCCNC(=O)COCCOCCNC(=O)CC[C@H](NC(=O)CCCCCCCCCCCCCCCCC(=O)O)C(=O)O)C(=O)O)[C@@H](C)O)[C@@H](C)CC)[C@@H](C)O)[C@@H](C)CC [Compound 28] (H-H[Aib]DGTFISDYSTILDALAARDFINWLIQTKITK([AEEA-AEEA-γGlu-C18 diacid])-OH; N-terminus assumed)
Absolute hGLP-2R internalization (AUC) (human SNP-tagged GLP-2R): 12.0
Relative hGLP-2R internalization (%) (human SNP-tagged GLP-2R): 24.8%
Emax (human GIPR; COS-7, normalized to highest concentration of the endogenous ligand, read-out: Efficacy GIPR (Emax)): 119%
EC50 [1]: > 100 nM
Emax (human GLP-1R; COS-7, normalized to highest concentration of the endogenous ligand, read-out: Efficacy GLP-1R (Emax)): 102%
EC50 (human GLP-1R; cAMP, COS-7 cells, human GLP-1R, read-out: EC50 (nM) GLP-1R): 3.98 nM
Absolute hGIPR internalization (AUC) (human SNAP-tagged GIPR; AUC of sigmoid curves up to 1 μM, 60 minutes at 37° C.): 21.7
Relative hGIPR internalization (%) (human SNAP-tagged GIPR; relative to hGIP 1-42 = 100): 58% and 59%
Emax (human GLP-2R; COS-7, normalized to highest concentration of the endogenous ligand, read-out: Efficacy GLP-2R (Emax)): 89%
EC50 (human GLP-2R; cAMP, COS-7 cells, human GLP-2R, read-out: EC50 (nM) GLP-2R): 2.2 nM
Absolute hGLP-1R internalization (AUC) (human SNAP-tagged GLP-1R): 0.96
Relative hGLP-1R internalization (%) (human SNAP-tagged GLP-1R): 1.14%

CC[C@H](C)[C@H](NC(=O)[C@H](Cc1ccccc1)NC(=O)[C@H](CC(=O)O)NC(=O)[C@H](CCCNC(=N)N)NC(=O)[C@H](C)NC(=O)[C@H](C)NC(=O)[C@H](CC(C)C)NC(=O)[C@H](CCCCNC(=O)COCCOCCNC(=O)COCCOCCNC(=O)CC[C@H](NC(=O)CCCCCCCCCCCCCCCCC(=O)O)C(=O)O)NC(=O)[C@H](CC(=O)O)NC(=O)[C@H](CC(C)C)NC(=O)[C@@H](NC(=O)[C@@H](NC(=O)[C@H](CO)NC(=O)[C@H](Cc1ccc(O)cc1)NC(=O)[C@H](CC(=O)O)NC(=O)[C@H](CO)NC(=O)[C@@H](NC(=O)[C@H](Cc1ccccc1)NC(=O)[C@@H](NC(=O)CNC(=O)[C@H](CC(=O)O)NC(=O)[C@H](C)NC(=O)[C@@H](N)Cc1c[nH]cn1)[C@@H](C)O)[C@@H](C)CC)[C@@H](C)O)[C@@H](C)CC)C(=O)N[C@@H](CC(N)=O)C(=O)N[C@@H](Cc1c[nH]c2ccccc12)C(=O)N[C@@H](CC(C)C)C(=O)N[C@H](C(=O)N[C@@H](CCC(N)=O)C(=O)N[C@H](C(=O)N[C@@H](CCCCN)C(=O)NCC(=O)N[C@@H](CCCCN)C(=O)N[C@@H](CCCCN)C(=O)O)[C@@H](C)O)[C@@H](C)CC [Compound 30]
Absolute hGLP-2R internalization (AUC) (human SNP-tagged GLP-2R): 22.7
Relative hGLP-2R internalization (%) (human SNP-tagged GLP-2R): 46.8%
Emax (human GIPR; COS-7, read-out: Efficacy GIPR (Emax)): 98%
EC50 [1]: > 100 nM
Emax (human GLP-1R; COS-7, read-out: Efficacy GLP-1R (Emax)): 93%
Absolute hGIPR internalization (AUC) (human SNAP-tagged GIPR): 21.0
Relative hGIPR internalization (%) (human SNAP-tagged GIPR): 57%
Emax (human GLP-2R; COS-7, read-out: Efficacy GLP-2R (Emax)): 73%
Absolute hGLP-1R internalization (AUC) (human SNAP-tagged GLP-1R): 7.3
Relative hGLP-1R internalization (%) (human SNAP-tagged GLP-1R): 8.6%

— patent publication US20250304644A1, “PEPTIDES TRIPLE AGONISTS OF GIP, GLP-1 AND GLP-2” (BAINAN BIOTECH APS, priority 2021, published 2025)
